Test results from patent EP2149552A1, “5,6 substituted benzamide derivatives as modulators of EP2 receptors” (Bayer Schering Pharma Aktiengesellschaft, priority 2008, dated 2010).

Legend:
Kumulus-Eizell Komplexe = experiment: cumulus expansion test in vitro; assay type: cell-based, Mäusen; conditions: competing with the natural agonist PGE2
Source text: In immaturen weiblichen Mäusen (Stamm : CD1 (ICR) von Charles River) wurde in einem Alter von 14 - 18 Tagen die Follikulogenese durch eine einmalige Gabe (intraperitoneal) von 10 I.E. PMSG (Pregnant Mare Serum Gonadotropine; Sigma G-4877, Lot 68H0909) induziert. 47 - 50 Stunden nach der Injektion wurden die Ovarien entnommen und die Kumulus-Eizell Komplexe entnommen. Der Kumulus Komplex ist in diesem Stadium noch nicht expandiert.
Die Kumulus-Eizell Komplexe wurden nun für 20-24 Stunden mit Prostaglandin E2 (PGE2) (0,3 µM), Vehikel Kontrolle (Ethanol) oder Testsubstanzen inkubiert. Medium: alpha- MEM Medium mit 0,1 mM IBMX, Pyruvate (0,23 mM) Glutamine (2 mM), Pen/Strep 100 IU/ml Pen. und 100 µg/ml Strep.) und HSA (8 mg/ml). Danach wurde die Kumulus Expansion durch die Einteilung in vier Stadien (nach Vanderhyden et al. Dev Biol. 1990 Aug;140(2):307-317) festgestellt. Tabelle 1: Beispiel für die biologische Wirksamkeit der erfindungsgemäßen Verbindungen (gemessen mittels cAMP Antagonismustest): […]

[1] = molecular target: T1, EP2-Subtyp des humanen PGE2-Rezeptors (Homo sapiens, UniProt P43116); experiment: cAMP antagonism test (HTRF cAMP detection, PGE2-stimulated cells); assay type: cell-based; conditions: cAMP Antagonismustest, in presence of agonist PGE2; read-out: Antagonismus [IC50
T1 construct: host or cells: cells in a culture plate
T1 sequence (P43116 whole entry): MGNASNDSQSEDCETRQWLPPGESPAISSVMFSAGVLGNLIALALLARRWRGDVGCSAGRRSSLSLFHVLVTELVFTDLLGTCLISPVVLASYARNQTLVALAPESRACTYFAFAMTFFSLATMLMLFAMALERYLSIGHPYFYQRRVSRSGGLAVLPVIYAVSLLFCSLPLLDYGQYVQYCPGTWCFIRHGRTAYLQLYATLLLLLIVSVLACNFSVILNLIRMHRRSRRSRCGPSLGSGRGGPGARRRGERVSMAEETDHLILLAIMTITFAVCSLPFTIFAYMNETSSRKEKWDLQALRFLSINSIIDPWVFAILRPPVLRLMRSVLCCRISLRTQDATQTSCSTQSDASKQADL
Source text: Die Bindung von PGE2 an den EP2-Subtyp des humanen PGE2-Rezeptors induziert die Aktivierung membranständiger Adenylatzyklasen und führt zur Bildung von cAMP. In Gegenwart des Phosphodiesteraseinhibitors IBMX wird das durch diese Stimulation akkumulierte und mittels Zell-Lyse freigesetzte cAMP in einem kompetitiven Nachweisverfahren eingesetzt. In diesem Test konkurriert das cAMP im Lysat mit cAMP-XL665 um die Bindung eines Eu-Kryptat markierten Anti-cAMP Antikörpers.
Dabei entsteht in Abwesenheit von zellulärem cAMP ein maximales Signal, welches auf der Kopplung dieses Antikörpers an das cAMP-XL665 Molekül beruht. Dadurch entsteht nach Anregung bei 337 nm ein auf FRET (fluorescence resonance energy transfer) basierendes, langanhaltendes Emissionssignal bei 665 nm (und bei […]). Beide Signale werden in einem geeigneten Messgerät zeitlich versetzt, d.h. nach Abklingen der Hintergrundsfluoreszenz gemessen. Jegliche Erhöhung des durch Prostglandin-E2-Gabe bedingten niedrigen FRET-Signals (gemessen als Well-Ratio-Veränderung = Emission665nm/Emission620nm * 10000) zeigt die Wirkung von Antagonisten.
Die in einer Testplatte und 30 % DMSO vorgelegten Substanzlösungen (0.75 µl) wurden in 16 µl einer KRSB+IBMX-Stimulationslösung gelöst (1 X Krebs-Ringer Bicarbonate Buffer; Sigma-Aldrich # K-4002; inklusive 750 µM 3-Isobutyl-1-methylxanthine Sigma-Aldrich # I-7018), anschließend wurden 15 µl davon in eine medienfreie Zellkulturplatte überführt, die kurz zuvor mit KRSB gewaschen worden war.
Nach einer 30-minütigen Vorinkubation bei Raumtemperatur (RT) wurden 5 µl einer 4xPGE2 Lösung (11 nM) zugegeben und in Gegenwart des Agonisten für weitere 60 min bei RT inkubiert (Volumen: ∼ 20 µl), bevor die Reaktion anschließend durch Zugabe von 5 µl Lysispuffer gestoppt und für weitere 20 min bei RT inkubiert wurde (Volumen: ∼ 25 µl). Das Zell-Lysat wurde anschließend in eine Messplatte überführt und entsprechend den Herstellerangaben (cyclic AMP kit Cisbio International # 62AMPPEC) gemessen.

[2] = molecular target: T1, EP2-Subtyp des humanen PGE2-Rezeptors; experiment: cellular cAMP agonism test (without PGE2); assay type: cell-based

SMILES | IC50 [1] [nM] | also measured
CC(C)Oc1ccc2c(=O)c3cc(C(=O)O)ccc3oc2c1 [AH 6809, reference compound] |  | Unterdrückung der Kumulus Expansion (Kumulus-Eizell Komplexe; 100 - 200 µM): ca. 30%
COc1ccc(C(=O)NCCc2c(C)[nH]c3c(F)cc(F)cc23)cc1OC [Beispiel 3, N-[2-(5,7-Difluor-2-methyl-1H-indol-3-yl)-ethyl]-3,4-dimethoxy-benzamid] | 700 | 
Cc1[nH]c2c(F)c(F)ccc2c1CCNC(=O)c1cc2cc(Cl)ccc2[nH]1 [Beispiel 5, 5-Chlor-1H-indol-2-carbonsäure [2-(6,7-difluor-2-methyl-1H-indol-3-yl)-ethyl]-amid] | 71 | 
Cc1[nH]c2c(F)c(Cl)ccc2c1CCNC(=O)c1cc2cc(F)ccc2[nH]1 [Beispiel 6, 5-Fluor-1H-indol-2-carbonsäure [2-(6-chlor-7-fluor-2-methyl-1H-indol-3-yl)-ethyl]-amid] | 200 | 
Cc1[nH]c2c(F)cc(Br)cc2c1CCNC(=O)c1cc2cc(F)ccc2[nH]1 [Beispiel 10, 5-Fluor-1H-indol-2-carbonsäure [2-(5-brom-7-fluor-2-methyl-1H-indol-3-yl)-ethyl]-amid] | 82 | Unterdrückung der Kumulus Expansion (Kumulus-Eizell Komplexe; 5 µM): ca. 75%; Wirkung im zellulären Agonismustest [2]: keine Inhibition
COc1ccc(C(=O)NCCc2c(C)[nH]c3c(F)cc(Br)c(C)c23)cc1OC [Beispiel 8, N-[2-(5-Brom-7-fluor-2,4-dimethyl-1H-indol-3-yl)-ethyl]-3,4-dimethoxy-benzamid] | 1800 | 
